Laboratory results reported in PubChem BioAssay (NCI).
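How tested: cells in 96-well plates exposed to compound for 48 hours at five concentrations. At the GI50, growth is halved. The concentration for full growth arrest is given as TGI.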

Key:
Assay in all cases: NCI-60 cell line screen, 48 h
SR leukemia = tested on: SR leukemia
TK-10 renal = tested on: TK-10 renal
T-47D breast = tested on: T-47D breast
SK-MEL-2 melanoma = tested on: SK-MEL-2 melanoma
OVCAR-5 ovarian = tested on: OVCAR-5 ovarian
SW-620 colon = tested on: SW-620 colon
NCI-H23 lung = tested on: NCI-H23 lung
EKVX NSCLC = tested on: EKVX NSCLC
OVCAR-3 ovarian = tested on: OVCAR-3 ovarian
UACC-62 melanoma = tested on: UACC-62 melanoma
MALME-3M melanoma = tested on: MALME-3M melanoma
CCRF-CEM leukemia = tested on: CCRF-CEM leukemia
HL-60(TB) leukemia = tested on: HL-60(TB) leukemia
SNB-75 CNS = tested on: SNB-75 CNS
NCI-H522 lung = tested on: NCI-H522 lung
RXF 393 renal = tested on: RXF 393 renal
MDA-MB-231 breast = tested on: MDA-MB-231 breast
ACHN renal = tested on: ACHN renal
DU-145 prostate = tested on: DU-145 prostate
MCF7 breast = tested on: MCF7 breast
IGROV1 ovarian = tested on: IGROV1 ovarian
UACC-257 melanoma = tested on: UACC-257 melanoma
SF-268 CNS = tested on: SF-268 CNS
NCI-H460 lung = tested on: NCI-H460 lung
UO-31 renal = tested on: UO-31 renal
SN12C renal = tested on: SN12C renal
SF-295 CNS = tested on: SF-295 CNS
HOP-92 NSCLC = tested on: HOP-92 NSCLC
786-0 renal = tested on: 786-0 renal
A498 renal = tested on: A498 renal
SK-OV-3 ovarian = tested on: SK-OV-3 ovarian
NCI-H226 lung = tested on: NCI-H226 lung
MDA-MB-435 = tested on: MDA-MB-435
HCC-2998 colon = tested on: HCC-2998 colon
HOP-62 NSCLC = tested on: HOP-62 NSCLC
A549 NSCLC = tested on: A549 NSCLC
HT29 colon = tested on: HT29 colon
OVCAR-4 ovarian = tested on: OVCAR-4 ovarian
SK-MEL-5 melanoma = tested on: SK-MEL-5 melanoma
HS 578T breast = tested on: HS 578T breast
SK-MEL-28 melanoma = tested on: SK-MEL-28 melanoma
SNB-19 CNS = tested on: SNB-19 CNS
RPMI-8226 leukemia = tested on: RPMI-8226 leukemia
LOX IMVI melanoma = tested on: LOX IMVI melanoma
OVCAR-8 ovarian = tested on: OVCAR-8 ovarian
MOLT-4 leukemia = tested on: MOLT-4 leukemia
HCT-116 colon = tested on: HCT-116 colon
KM12 colon = tested on: KM12 colon
SF-539 CNS = tested on: SF-539 CNS
NCI/ADR-RES ovarian = tested on: NCI/ADR-RES ovarian
U251 CNS = tested on: U251 CNS
HCT-15 colon = tested on: HCT-15 colon
BT-549 breast = tested on: BT-549 breast
COLO 205 colon = tested on: COLO 205 colon
PC-3 prostate = tested on: PC-3 prostate
M14 melanoma = tested on: M14 melanoma

O=C(O)c1sccc1O
GI50 (SR leukemia): 34.5 µM | TGI (SR leukemia): > 100 µM | GI50 (TK-10 renal): 89.6 µM | TGI (TK-10 renal): > 100 µM | GI50 (T-47D breast): 33.3 µM | TGI (T-47D breast): > 100 µM | GI50 (SK-MEL-2 melanoma): 35.1 µM | TGI (SK-MEL-2 melanoma): > 100 µM | GI50 (OVCAR-5 ovarian): 76.3 µM | TGI (OVCAR-5 ovarian): > 100 µM | GI50 (SW-620 colon): 31.4 µM | TGI (SW-620 colon): > 100 µM | GI50 (NCI-H23 lung): 37.3 µM | TGI (NCI-H23 lung): > 100 µM | GI50 (EKVX NSCLC): 21.7 µM | TGI (EKVX NSCLC): > 100 µM | GI50 (OVCAR-3 ovarian): 32.7 µM | TGI (OVCAR-3 ovarian): > 100 µM | GI50 (UACC-62 melanoma): 17.9 µM | TGI (UACC-62 melanoma): 52 µM | GI50 (MALME-3M melanoma): 83.4 µM | TGI (MALME-3M melanoma): > 100 µM | GI50 (CCRF-CEM leukemia): 31.9 µM | TGI (CCRF-CEM leukemia): > 100 µM | GI50 (HL-60(TB) leukemia): 33.9 µM | TGI (HL-60(TB) leukemia): 90.1 µM | GI50 (SNB-75 CNS): 15.9 µM | TGI (SNB-75 CNS): > 100 µM | GI50 (NCI-H522 lung): 25.4 µM | TGI (NCI-H522 lung): 80.7 µM | GI50 (RXF 393 renal): 32 µM | TGI (RXF 393 renal): > 100 µM | GI50 (MDA-MB-231 breast): 16.4 µM | TGI (MDA-MB-231 breast): 73.5 µM | GI50 (ACHN renal): 28.6 µM | TGI (ACHN renal): > 100 µM | GI50 (DU-145 prostate): 48 µM | TGI (DU-145 prostate): > 100 µM | GI50 (MCF7 breast): 31.5 µM | TGI (MCF7 breast): > 100 µM | GI50 (IGROV1 ovarian): 21.8 µM | TGI (IGROV1 ovarian): > 100 µM | GI50 (UACC-257 melanoma): 47.2 µM | TGI (UACC-257 melanoma): > 100 µM | GI50 (SF-268 CNS): 33.2 µM | TGI (SF-268 CNS): > 100 µM | GI50 (NCI-H460 lung): 33.5 µM | TGI (NCI-H460 lung): > 100 µM | GI50 (UO-31 renal): 15.2 µM | TGI (UO-31 renal): > 100 µM | GI50 (SN12C renal): 32.7 µM | TGI (SN12C renal): > 100 µM | GI50 (SF-295 CNS): 34.8 µM | TGI (SF-295 CNS): > 100 µM | GI50 (HOP-92 NSCLC): 24.9 µM | TGI (HOP-92 NSCLC): > 100 µM | GI50 (786-0 renal): 60.9 µM | TGI (786-0 renal): > 100 µM | GI50 (A498 renal): 52.3 µM | TGI (A498 renal): > 100 µM | GI50 (SK-OV-3 ovarian): > 100 µM | TGI (SK-OV-3 ovarian): > 100 µM | GI50 (NCI-H226 lung): > 100 µM | TGI (NCI-H226 lung): > 100 µM | GI50 (MDA-MB-435): 27.1 µM | TGI (MDA-MB-435): > 100 µM | GI50 (HCC-2998 colon): 36.6 µM | TGI (HCC-2998 colon): > 100 µM | GI50 (HOP-62 NSCLC): 22.2 µM | TGI (HOP-62 NSCLC): > 100 µM | GI50 (A549 NSCLC): 50.3 µM | TGI (A549 NSCLC): > 100 µM | GI50 (HT29 colon): 57.5 µM | TGI (HT29 colon): > 100 µM | GI50 (OVCAR-4 ovarian): 26.4 µM | TGI (OVCAR-4 ovarian): > 100 µM | GI50 (SK-MEL-5 melanoma): 25.3 µM | TGI (SK-MEL-5 melanoma): 99.2 µM | GI50 (HS 578T breast): 24.9 µM | TGI (HS 578T breast): > 100 µM | GI50 (SK-MEL-28 melanoma): 32.2 µM | TGI (SK-MEL-28 melanoma): > 100 µM | GI50 (SNB-19 CNS): 41.3 µM | TGI (SNB-19 CNS): > 100 µM | GI50 (RPMI-8226 leukemia): 25.2 µM | TGI (RPMI-8226 leukemia): > 100 µM | GI50 (LOX IMVI melanoma): 26.4 µM | TGI (LOX IMVI melanoma): > 100 µM | GI50 (OVCAR-8 ovarian): 47.7 µM | TGI (OVCAR-8 ovarian): > 100 µM | GI50 (MOLT-4 leukemia): 34.9 µM | TGI (MOLT-4 leukemia): > 100 µM | GI50 (HCT-116 colon): 31.2 µM | TGI (HCT-116 colon): > 100 µM | GI50 (KM12 colon): 30.6 µM | TGI (KM12 colon): > 100 µM | GI50 (SF-539 CNS): 28.8 µM | TGI (SF-539 CNS): > 100 µM | GI50 (NCI/ADR-RES ovarian): 40.5 µM | TGI (NCI/ADR-RES ovarian): > 100 µM | GI50 (U251 CNS): 34.7 µM | TGI (U251 CNS): > 100 µM | GI50 (HCT-15 colon): 32.1 µM | TGI (HCT-15 colon): > 100 µM | GI50 (BT-549 breast): 21.6 µM | TGI (BT-549 breast): > 100 µM | GI50 (COLO 205 colon): 60.1 µM | TGI (COLO 205 colon): > 100 µM | GI50 (PC-3 prostate): 24.2 µM | TGI (PC-3 prostate): > 100 µM | GI50 (M14 melanoma): 27 µM | TGI (M14 melanoma): > 100 µM
